Test results from ChEMBL document CHEMBL5537122, “Design, synthesis, and biological evaluation of 4-(2-fluorophenoxy)-7-methoxyquinazoline derivatives as dual EGFR/c-Met inhibitors for the treatment of NSCLC” (Eur J Med Chem, 2024).
Active and inactive are the calls of the source. No cut-off for these calls is given here.

What was measured:
[1] = tested on: A549; experiment: Induction in apoptosis in human A549 cells overexpressing c-MET assessed as necrotic cells at 1 uM incubated for 24 hrs by Annexin V-FITC/Propidium Iodide staining based flow cytometry analysis (reference value: 3.22 %); format: functional
[2] = tested on: A549; experiment: Inhibition of colony formation in human A549 cells overexpressing c-MET at 1 uM preincubated for 48 hrs followed by media replacement for every 2 days for 14 days by crystal violet staining based microscopic analysis relative to control; format: functional
[3] = target: T1, Hepatocyte growth factor receptor (Homo sapiens, UniProt P08581); experiment: Potency index, ratio of foretinib IC50 to test compound IC50 for inhibition of N-terminal GST tagged human recombinant c-Met (956 to end residues) expressed in baculovirus infected Sf9 cells using Poly (4:1 Glu, Tyr) as substrate incubated for 60 mins in presence of ATP by ADP-Glo luminescent assay
[4] = Acute toxicity in KM mouse assessed as cell damage or necrosis in kidney at 100 mg/kg, IG qa administered for 7 days and measured on day 8 by hematoxylin and eosin staining based assay; format: organism-based; details: in vivo, po, 192 h, time 8 day
[5] = tested on: NCI-H1975; experiment: Induction in apoptosis in human NCI-H1975 cells assessed as necrotic cells at 2.5 uM incubated for 24 hrs by Annexin V-FITC/Propidium Iodide staining based flow cytometry analysis (reference value: 1.42 %); format: functional
[6] = organism: Homo sapiens; experiment: Inhibition of EGFR T790/C797S mutant (unknown origin) at 10 uM
[7] = target: Macrophage-stimulating protein receptor (Homo sapiens) (UniProt Q04912); experiment: Inhibition of RON (unknown origin) at 10 uM
[8] = Toxicity in BALB/c nude mouse xenografted with human A549 cells overexpressing c-MET assessed as change in body weight at 40 to 60 mg/kg, IG and measured for 24 days; format: organism-based; details: in vivo, po, 576 h, dose 40-60 mg/kg, time 24 day
[9] = tested on: NCI-H1975; experiment: Inhibition of colony formation in human NCI-H1975 cells at 1 uM preincubated for 48 hrs followed by media replacement for every 2 days for 14 days by crystal violet staining based microscopic analysis relative to control; format: functional
[10] = Nephrotoxicity in KM mouse assessed as effect on urea level at 100 mg/kg, IG qd administered for 7 days by automatic biochemical analyzer; format: toxicity, organism-based; details: in vivo, po, 168 h, time 7 day
[11] = Induction in apoptosis in human L02 cells assessed as viable cells at 2.5 uM incubated for 24 hrs by Annexin V-FITC/Propidium Iodide staining based flow cytometry analysis (reference value: 92.75 %); format: toxicity, cell-based; details: read-out: Activity
[12] = target: Epidermal growth factor receptor (Homo sapiens, UniProt P00533, L858R); experiment: biochemical
[13] = target: Insulin-like growth factor 1 receptor (Homo sapiens) (UniProt P08069); experiment: Inhibition of IGF-1R (unknown origin) at 10 uM
[14] = tested on: A549; experiment: Induction of apoptosis in human A549 cells overexpressing c-MET assessed as reduction in red fluorescence intensity incubated for 24 hrs by JC-1 staining based fluorescence inverted microscopic analysis; format: functional, cell-based; details: dose 1-2.5 µM
[15] = target: Vascular endothelial growth factor receptor 1 (Homo sapiens) (UniProt P17948); experiment: Inhibition of FLT1 (unknown origin) at 10 uM
[16] = target: Tyrosine-protein kinase receptor UFO (Homo sapiens) (UniProt P30530); experiment: Inhibition of AXL (unknown origin) at 10 uM
[17] = tested on: A549; experiment: Induction of cell cycle arrest in human A549 cells overexpressing c-MET assessed as accumulation of cells at G2/M phase at 1 uM incubated for 24 hrs by RNase A/propidium iodide staining based flow cytometric analysis (reference value: 12.41 %); format: functional
[18] = tested on: L02; experiment: Induction in apoptosis in human L02 cells assessed as early apoptotic cells at 2.5 uM incubated for 24 hrs by Annexin V-FITC/Propidium Iodide staining based flow cytometry analysis (reference value: 0.26 %); format: toxicity, cell-based; details: l02, 24 h
[19] = tested on: NCI-H1975; experiment: Induction in apoptosis in human NCI-H1975 cells assessed as late apoptotic cells at 2.5 uM incubated for 24 hrs by Annexin V-FITC/Propidium Iodide staining based flow cytometry analysis (reference value: 4.46 %); format: functional
[20] = tested on: A549; experiment: Antitumor activity against human A549 cells overexpressing c-MET xenografted in BALB/c nude mouse assessed as tumor growth inhibition at 60 mg/kg, IG qod measured for 24 days relative to control; format: functional; details: A549, po, 576 h, time 24 day, read-out: TGI
[21] = tested on: NCI-H1975; experiment: Induction in apoptosis in human NCI-H1975 cells assessed as late apoptotic cells at 1 uM incubated for 24 hrs by Annexin V-FITC/Propidium Iodide staining based flow cytometry analysis (reference value: 4.46 %); format: functional
[22] = tested on: NCI-H1975; experiment: Induction in apoptosis in human NCI-H1975 cells assessed as early apoptotic cells at 1 uM incubated for 24 hrs by Annexin V-FITC/Propidium Iodide staining based flow cytometry analysis (reference value: 2.54 %); format: functional
[23] = Hemolytic activity in sheep erythrocytes at 128 ug/ml incubated for 2 hr by UV spectrophotometer relative to control; format: toxicity, cell-based, Ovis aries, Erythrocyte; details: at 128 µg/mL, read-out: Activity
[24] = tested on: A549; experiment: Induction of apoptosis in human A549 cells overexpressing c-MET assessed as increase in green fluorescence intensity incubated for 24 hrs by JC-1 staining based fluorescence inverted microscopic analysis; format: functional, cell-based; details: dose 1-2.5 µM
[25] = tested on: NCI-H1975; experiment: Antimigratory activity against EGF-induced cell migration in serum starved human NCI-H1975 cells assessed as increase in width of artificial gap incubated for 24 hrs by wound healing assay; format: functional, cell-based; details: dose 1-2.5 µM
[26] = target: Proto-oncogene tyrosine-protein kinase ROS (Homo sapiens) (UniProt P08922); experiment: Inhibition of ROS (unknown origin) at 10 uM
[27] = tested on: NCI-H1975; experiment: Induction in apoptosis in human NCI-H1975 cells assessed as early apoptotic cells at 2.5 uM incubated for 24 hrs by Annexin V-FITC/Propidium Iodide staining based flow cytometry analysis (reference value: 2.54 %); format: functional
[28] = Hepatotoxicity in KM mouse assessed as effect on aspartate aminotransferase level at 100 mg/kg, IG qd administered for 7 days by automatic biochemical analyzer; format: toxicity, organism-based; details: in vivo, po, 168 h, time 7 day
[29] = Cardiotoxicity in KM mouse assessed as effect on creatine kinase level at 100 mg/kg, IG qd administered for 7 days by automatic biochemical analyzer; format: toxicity, organism-based; details: in vivo, po, 168 h, time 7 day
[30] = target: T1, Hepatocyte growth factor receptor; experiment: biochemical
Description: Inhibition of N-terminal GST tagged human recombinant c-Met (956 to end residues) expressed in baculovirus infected Sf9 cells using Poly (4:1 Glu, Tyr) as substrate incubated for 60 mins in presence of ATP by ADP-Glo luminescent assay

[31] = Acute toxicity in KM mouse assessed as cell damage or necrosis in heart at 100 mg/kg, IG qa administered for 7 days and measured on day 8 by hematoxylin and eosin staining based assay; format: organism-based; details: in vivo, po, 192 h, time 8 day
[32] = target: Fibroblast growth factor receptor 1 (Homo sapiens) (UniProt P11362); experiment: Inhibition of FGFR1 (unknown origin) at 10 uM
[33] = Induction in apoptosis in human L02 cells assessed as viable cells at 1 uM incubated for 24 hrs by Annexin V-FITC/Propidium Iodide staining based flow cytometry analysis (reference value: 92.75 %); format: toxicity, cell-based; details: read-out: Activity

T1 sequence (P08581 whole entry): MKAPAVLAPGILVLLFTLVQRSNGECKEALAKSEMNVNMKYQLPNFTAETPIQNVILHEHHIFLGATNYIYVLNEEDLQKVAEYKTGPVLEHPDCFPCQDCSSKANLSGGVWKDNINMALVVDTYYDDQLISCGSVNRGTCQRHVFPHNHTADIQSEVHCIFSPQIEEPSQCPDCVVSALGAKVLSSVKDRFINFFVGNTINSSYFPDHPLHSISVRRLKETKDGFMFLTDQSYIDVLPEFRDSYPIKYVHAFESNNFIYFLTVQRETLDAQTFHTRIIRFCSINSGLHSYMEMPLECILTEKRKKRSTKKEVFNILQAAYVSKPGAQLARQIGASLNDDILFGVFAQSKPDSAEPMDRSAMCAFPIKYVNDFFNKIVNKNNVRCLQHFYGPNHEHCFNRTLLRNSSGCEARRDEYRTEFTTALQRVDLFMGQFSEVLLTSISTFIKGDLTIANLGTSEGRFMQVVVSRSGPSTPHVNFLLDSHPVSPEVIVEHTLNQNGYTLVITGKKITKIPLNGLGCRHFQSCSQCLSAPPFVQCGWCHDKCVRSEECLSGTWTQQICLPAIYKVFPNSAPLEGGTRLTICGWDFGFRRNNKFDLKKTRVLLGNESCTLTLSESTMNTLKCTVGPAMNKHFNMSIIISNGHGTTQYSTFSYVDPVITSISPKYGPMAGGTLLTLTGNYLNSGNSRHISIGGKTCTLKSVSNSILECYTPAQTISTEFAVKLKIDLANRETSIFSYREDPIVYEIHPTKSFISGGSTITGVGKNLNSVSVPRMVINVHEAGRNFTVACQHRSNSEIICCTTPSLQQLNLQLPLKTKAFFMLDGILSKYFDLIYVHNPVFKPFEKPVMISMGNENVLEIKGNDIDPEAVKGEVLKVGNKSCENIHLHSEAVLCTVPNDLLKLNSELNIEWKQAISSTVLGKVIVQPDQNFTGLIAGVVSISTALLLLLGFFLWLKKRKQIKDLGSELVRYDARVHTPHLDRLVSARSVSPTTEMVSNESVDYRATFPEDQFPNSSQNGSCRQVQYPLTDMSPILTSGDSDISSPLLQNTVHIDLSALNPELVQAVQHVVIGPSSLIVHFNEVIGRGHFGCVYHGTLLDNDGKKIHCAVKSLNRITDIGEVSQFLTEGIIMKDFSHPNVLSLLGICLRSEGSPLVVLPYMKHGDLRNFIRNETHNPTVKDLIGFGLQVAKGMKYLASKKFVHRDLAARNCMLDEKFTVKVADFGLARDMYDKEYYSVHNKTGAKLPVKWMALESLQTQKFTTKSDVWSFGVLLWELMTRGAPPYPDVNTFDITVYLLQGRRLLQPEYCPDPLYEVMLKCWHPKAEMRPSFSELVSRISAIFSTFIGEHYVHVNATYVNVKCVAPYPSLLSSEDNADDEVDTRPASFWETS
Sequence of Macrophage-stimulating protein receptor (Homo sapiens) (Q04912 25-304 limits assumed): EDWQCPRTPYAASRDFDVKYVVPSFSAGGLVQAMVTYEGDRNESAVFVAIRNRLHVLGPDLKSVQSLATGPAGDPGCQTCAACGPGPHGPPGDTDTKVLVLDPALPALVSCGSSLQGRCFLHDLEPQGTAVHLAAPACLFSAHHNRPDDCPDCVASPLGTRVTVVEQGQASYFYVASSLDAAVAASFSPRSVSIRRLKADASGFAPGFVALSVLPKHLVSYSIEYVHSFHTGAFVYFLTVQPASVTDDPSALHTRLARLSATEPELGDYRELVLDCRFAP
Sequence of Macrophage-stimulating protein receptor (Homo sapiens) (Q04912 310-1400 limits assumed): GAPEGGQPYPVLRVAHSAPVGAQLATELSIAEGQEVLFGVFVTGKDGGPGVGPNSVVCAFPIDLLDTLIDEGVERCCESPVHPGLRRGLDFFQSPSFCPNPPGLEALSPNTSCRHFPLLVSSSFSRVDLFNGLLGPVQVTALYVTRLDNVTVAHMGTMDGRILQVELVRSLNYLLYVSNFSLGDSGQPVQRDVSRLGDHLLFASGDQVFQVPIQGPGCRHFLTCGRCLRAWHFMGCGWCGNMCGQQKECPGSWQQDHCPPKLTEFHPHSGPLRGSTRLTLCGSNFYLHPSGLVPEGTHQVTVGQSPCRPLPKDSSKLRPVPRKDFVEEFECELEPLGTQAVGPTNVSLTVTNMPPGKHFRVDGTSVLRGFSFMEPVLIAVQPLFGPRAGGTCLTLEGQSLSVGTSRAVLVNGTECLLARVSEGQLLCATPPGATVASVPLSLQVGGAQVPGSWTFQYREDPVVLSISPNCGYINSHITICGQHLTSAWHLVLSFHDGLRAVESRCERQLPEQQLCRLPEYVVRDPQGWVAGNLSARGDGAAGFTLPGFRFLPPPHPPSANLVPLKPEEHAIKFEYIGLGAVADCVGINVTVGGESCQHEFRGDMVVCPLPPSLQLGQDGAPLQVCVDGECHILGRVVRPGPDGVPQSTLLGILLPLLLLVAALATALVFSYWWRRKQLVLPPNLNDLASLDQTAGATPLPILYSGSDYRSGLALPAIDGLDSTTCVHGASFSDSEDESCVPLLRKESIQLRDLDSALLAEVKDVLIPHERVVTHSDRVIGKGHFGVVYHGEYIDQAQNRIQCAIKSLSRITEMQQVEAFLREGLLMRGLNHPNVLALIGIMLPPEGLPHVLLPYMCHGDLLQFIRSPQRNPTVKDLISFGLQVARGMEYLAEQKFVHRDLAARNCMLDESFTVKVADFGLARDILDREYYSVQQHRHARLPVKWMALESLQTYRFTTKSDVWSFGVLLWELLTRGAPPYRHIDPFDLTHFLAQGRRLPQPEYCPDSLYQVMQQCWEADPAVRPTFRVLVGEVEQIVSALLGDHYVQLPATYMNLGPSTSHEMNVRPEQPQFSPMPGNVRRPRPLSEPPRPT
Sequence of Fibroblast growth factor receptor 1 (Homo sapiens) (P11362 22-822 limits assumed): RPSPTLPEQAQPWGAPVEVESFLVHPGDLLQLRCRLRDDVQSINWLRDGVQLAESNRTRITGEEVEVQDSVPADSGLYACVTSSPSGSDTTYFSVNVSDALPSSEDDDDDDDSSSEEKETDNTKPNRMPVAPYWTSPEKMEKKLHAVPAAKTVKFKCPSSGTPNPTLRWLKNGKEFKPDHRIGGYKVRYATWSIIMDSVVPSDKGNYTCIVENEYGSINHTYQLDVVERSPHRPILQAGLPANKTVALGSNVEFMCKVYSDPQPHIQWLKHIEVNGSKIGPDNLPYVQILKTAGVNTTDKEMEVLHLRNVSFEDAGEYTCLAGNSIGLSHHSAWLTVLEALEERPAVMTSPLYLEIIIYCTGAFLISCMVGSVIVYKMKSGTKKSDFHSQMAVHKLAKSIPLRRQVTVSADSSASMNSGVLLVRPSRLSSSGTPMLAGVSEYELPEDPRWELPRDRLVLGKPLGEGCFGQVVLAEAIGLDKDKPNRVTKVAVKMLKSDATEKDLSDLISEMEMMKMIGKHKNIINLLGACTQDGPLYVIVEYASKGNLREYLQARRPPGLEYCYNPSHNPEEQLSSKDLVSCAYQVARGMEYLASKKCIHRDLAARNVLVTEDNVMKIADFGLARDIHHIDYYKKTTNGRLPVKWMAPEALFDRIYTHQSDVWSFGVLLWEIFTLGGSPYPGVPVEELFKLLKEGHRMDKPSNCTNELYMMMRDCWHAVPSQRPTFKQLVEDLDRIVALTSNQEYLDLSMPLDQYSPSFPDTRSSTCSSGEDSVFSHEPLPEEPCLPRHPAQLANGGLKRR
Sequence of Vascular endothelial growth factor receptor 1 (Homo sapiens) (P17948 whole entry): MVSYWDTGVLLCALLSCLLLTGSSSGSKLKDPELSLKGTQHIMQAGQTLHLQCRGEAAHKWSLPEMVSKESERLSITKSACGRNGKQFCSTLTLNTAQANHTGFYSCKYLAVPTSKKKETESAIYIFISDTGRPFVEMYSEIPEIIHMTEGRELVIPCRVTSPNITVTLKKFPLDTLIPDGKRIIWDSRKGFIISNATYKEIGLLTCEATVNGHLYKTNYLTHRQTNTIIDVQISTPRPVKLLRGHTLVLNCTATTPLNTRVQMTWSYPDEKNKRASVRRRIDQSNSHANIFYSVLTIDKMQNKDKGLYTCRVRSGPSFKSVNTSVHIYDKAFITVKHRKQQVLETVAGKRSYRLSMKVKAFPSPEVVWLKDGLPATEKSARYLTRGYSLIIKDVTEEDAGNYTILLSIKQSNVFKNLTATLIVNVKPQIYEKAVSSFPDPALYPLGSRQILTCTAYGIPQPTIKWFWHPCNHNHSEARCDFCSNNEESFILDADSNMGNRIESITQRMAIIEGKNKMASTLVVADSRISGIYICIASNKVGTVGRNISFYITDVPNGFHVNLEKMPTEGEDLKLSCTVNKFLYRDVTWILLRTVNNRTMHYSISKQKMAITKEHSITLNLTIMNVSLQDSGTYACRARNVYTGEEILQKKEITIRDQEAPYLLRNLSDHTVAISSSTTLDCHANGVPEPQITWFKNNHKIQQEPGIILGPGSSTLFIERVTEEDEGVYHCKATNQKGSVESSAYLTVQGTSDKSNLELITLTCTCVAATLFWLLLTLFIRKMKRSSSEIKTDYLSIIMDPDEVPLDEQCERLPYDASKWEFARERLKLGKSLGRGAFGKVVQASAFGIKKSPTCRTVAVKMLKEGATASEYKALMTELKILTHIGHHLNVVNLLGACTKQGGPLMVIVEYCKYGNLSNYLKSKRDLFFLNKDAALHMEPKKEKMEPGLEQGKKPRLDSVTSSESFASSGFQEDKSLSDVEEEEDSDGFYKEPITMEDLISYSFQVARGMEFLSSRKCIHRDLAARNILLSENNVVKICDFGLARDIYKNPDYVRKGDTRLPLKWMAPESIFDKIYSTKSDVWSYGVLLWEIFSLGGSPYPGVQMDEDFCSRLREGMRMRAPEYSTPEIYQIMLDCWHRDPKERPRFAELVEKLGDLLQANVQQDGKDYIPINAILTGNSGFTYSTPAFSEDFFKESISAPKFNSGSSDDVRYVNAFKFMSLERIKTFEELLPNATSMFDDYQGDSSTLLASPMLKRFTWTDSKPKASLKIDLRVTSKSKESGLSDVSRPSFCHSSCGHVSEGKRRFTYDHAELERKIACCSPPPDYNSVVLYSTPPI

Compound C=CC(=O)Nc1cc2c(Oc3ccc(NC(=O)n4c(=O)c(-c5ccccc5)c(C)n4C)cc3F)cccc2cc1OC has an Activity [1] of 6.61%, an inhibition at 1 µM [2] of roughly 50% and a Ratio IC50 [3] of 28. The Activity [4] was “Non-Toxic”, the Activity [5] was 2.49% and the inhibition [6] was “inactive”. The inhibition [7] was “Active”, the Activity [8] was “Non-Toxic” and the inhibition at 1 µM [9] was roughly 50%. For the same compound, the Activity [10] was “Non-Toxic”, the viability at 24 h, 2.5 µM [11] was 95% and the IC50 [12] was 68.1 nM. For the same compound, the inhibition [13] was “inactive”, the Activity [14] was “Dose-Dependent Effect” and the inhibition [15] was “Active”. For the same compound, the inhibition [16] was “inactive”, the Activity [17] was 11.29% and the Activity [18] was 0.13%. For the same compound, the Activity [19] was 8.17%, the inhibition in vivo at 60 mg/kg [20] was 55.3% and the Activity [21] was 7.27%. For the same compound, the Activity [22] was 2.77%, the hemolysis at 2 h, 128 ug/ml [23] was 5% and the Activity [24] was “Dose-Dependent Effect”. The Activity [25] was “Dose-Dependent Effect”, the inhibition [26] was “Active” and the Activity [27] was 3.87%. The Activity [28] was “Non-Toxic”, the Activity [29] was “Non-Toxic” and the IC50 [30] was 0.26 nM. The Activity [31] was “Non-Toxic”, the inhibition [32] was “inactive” and the viability at 24 h, 1 µM [33] was 91.9%.
